In patent US20140228349A1, “5,7-SUBSTITUTED-IMIDAZO[1,2-C]PYRIMIDINES” (Array BioPharma Inc., priority 2011, published 2014):

Legend:
Format in all cases: biochemical
[1] = target: T1, JAK1 (Homo sapiens, UniProt P23458); assay: JAK1 Inhibition Assay (Omnia kinase fluorescence peptide substrate); conditions: averaged IC50 ranges; 40 μM (Km app) or 1 mM ATP, 15 nM JAK1
T1 construct: purchased Invitrogen Corporation, Carlsbad, Calif; IVGN PV4775
Source text: (§1) The assays described in Examples A, B, C and D for the determination of Tyk2, JAK1, JAK2 and JAK3 kinase activity, respectively, utilized the Omnia® Kinase fluorescence peptide substrate-based technology (Invitrogen). The specific components of the assay mixture are described in Examples A, B, C and D. In these assays, Mg^2+ is chelated upon phosphorylation of the Omnia peptide by the kinase to form a bridge between the chelation-enhanced fluorophore Sox and the phosphate, resulting in an increase in fluorescence emission at 485 nm when excited at […]. The reactions were therefore read at excitation 360 nm and emission was measured at 485 nm every 50 seconds for 45 minutes using a PerkinElmer EnVision Multilabel Plate Reader.
(§2) The final buffer conditions for Tyk2, JAK1, JAK2, and JAK3 assays were as follows: 25 mM HEPES, pH 7.4, 10 mM MgCl2, 0.01% Triton X-100 and 1 mM DTT.
(§3) Compounds were prepared at 50× the final concentration in DMSO by conducting 3-fold serial dilutions from a 500-μM intermediate dilution to give a 10-point dosing curve having a high dose of 10 μM. Two-μL aliquots of these were transferred to a fresh plate for a ten-fold intermediate dilution with assay buffer. Five-μL aliquots of the diluted compounds were then transferred to 20-μL of assay mixtures described in Examples A, B, C and D for a final concentration of DMSO of 2%. A standard or reference compound was typically included on each assay plate to validate that plate. For each plate, percent of control (POC) values were calculated for each well according to the following equation: […]
(§4) IC50's were estimated from the POC's using a standard 4-parameter logistic model:
(§5) The IC50 is defined as the concentration of inhibitor at which the POC equals 50 for the fitted curve.
Compounds of Formula I were screened for their ability to inhibit JAK1 using the general enzyme inhibition assay method, in which the assay mixture contained 40 μM (Km app) or 1 mM ATP, 8 μM Omnia® Y12 peptide (Catalog #IVGN KPZ3121C; Invitrogen Corporation, Carlsbad, Calif.) and 15 nM JAK1 in a total volume of 20 μL. JAK1 was purchased from Invitrogen Corporation, Carlsbad, Calif. (catalog #IVGN PV4775).

[2] = target: T2, JAK3 (Homo sapiens, UniProt P52333); assay: JAK3 Inhibition Assay (Omnia kinase fluorescence peptide substrate); conditions: averaged IC50 ranges; 10 μM (Km app) or 1 mM ATP, 2.5 nM JAK3
T2 construct: purchased Invitrogen Corporation, Carlsbad, Calif; IVGN PV4080
T2 sequence (P52333 1-1124): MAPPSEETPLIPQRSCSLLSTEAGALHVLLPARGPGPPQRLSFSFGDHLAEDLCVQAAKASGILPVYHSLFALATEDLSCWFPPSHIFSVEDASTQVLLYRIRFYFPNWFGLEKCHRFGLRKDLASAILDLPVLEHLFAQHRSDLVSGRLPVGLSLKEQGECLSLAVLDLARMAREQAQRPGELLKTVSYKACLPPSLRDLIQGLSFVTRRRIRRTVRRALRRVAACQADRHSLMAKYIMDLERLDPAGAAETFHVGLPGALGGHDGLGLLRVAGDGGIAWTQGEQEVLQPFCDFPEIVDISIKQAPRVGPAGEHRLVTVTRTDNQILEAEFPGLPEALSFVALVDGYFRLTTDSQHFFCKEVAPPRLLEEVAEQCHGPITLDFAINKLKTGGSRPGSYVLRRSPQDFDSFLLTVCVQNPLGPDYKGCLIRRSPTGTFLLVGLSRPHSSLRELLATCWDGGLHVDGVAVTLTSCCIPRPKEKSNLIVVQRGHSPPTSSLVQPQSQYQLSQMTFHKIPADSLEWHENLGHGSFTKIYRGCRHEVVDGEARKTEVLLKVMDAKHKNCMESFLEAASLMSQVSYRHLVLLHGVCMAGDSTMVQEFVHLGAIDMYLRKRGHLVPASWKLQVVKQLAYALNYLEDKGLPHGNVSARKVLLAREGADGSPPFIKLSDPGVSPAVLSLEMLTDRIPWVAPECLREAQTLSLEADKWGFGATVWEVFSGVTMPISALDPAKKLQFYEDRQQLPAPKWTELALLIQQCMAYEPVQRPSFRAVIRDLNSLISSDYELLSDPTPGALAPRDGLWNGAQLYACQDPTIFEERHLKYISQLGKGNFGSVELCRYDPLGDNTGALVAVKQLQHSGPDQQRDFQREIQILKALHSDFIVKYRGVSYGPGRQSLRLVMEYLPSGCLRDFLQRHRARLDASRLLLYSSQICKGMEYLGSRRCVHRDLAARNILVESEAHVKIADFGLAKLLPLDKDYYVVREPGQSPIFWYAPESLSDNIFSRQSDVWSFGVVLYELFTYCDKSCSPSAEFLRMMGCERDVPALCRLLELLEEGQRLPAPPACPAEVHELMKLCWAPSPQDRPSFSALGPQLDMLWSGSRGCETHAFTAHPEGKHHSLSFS
Source text: as §1, §2, §3, §4, §5
(§6) Compounds of Formula I were screened for their ability to inhibit JAK3 using the general enzyme inhibition assay method, in which the assay mixture contained 10 μM (Km app) or 1 mM ATP, 10 μM Omnia® Y7 peptide (Catalog #IVGN KNZ3071C, Invitrogen Corporation, Carlsbad, Calif.) and 2.5 nM JAK3 in a total volume of 20 μL. JAK3 was purchased from Invitrogen Corporation, Carlsbad, Calif. (catalog #IVGN PV4080).

[3] = target: T3, JAK2 (Homo sapiens, UniProt O60674); assay: JAK2 Inhibition Assay (Omnia kinase fluorescence peptide substrate); conditions: averaged IC50 ranges; 25 μM (Km app) or 1 mM ATP, 5 nM JAK2
T3 construct: purchased Invitrogen Corporation, Carlsbad, Calif; IVGN PV4288
Source text: as §1, §2, §3, §4, §5
as §6, with “inhibit JAK2” for “inhibit JAK3”, “contained 25” for “contained 10”, “and 5” for “and 2.5”, “nM JAK2” for “nM JAK3”, “μL. JAK2” for “μL. JAK3”, “#IVGN PV4288).” for “#IVGN PV4080).”

[4] = target: T4, Human Tyk2 kinase domain (Homo sapiens, UniProt P29597); assay: Tyk2 Inhibition Assay (Omnia kinase fluorescence peptide substrate); conditions: averaged IC50 ranges; 10 μM (Km app) or 1 mM ATP, 2 nM Tyk2
T4 construct: comprising amino acids 886 to 1187; His10 (10 histidine residues) (C, cleaved yes); made in house
T4 sequence (P29597 886-1187): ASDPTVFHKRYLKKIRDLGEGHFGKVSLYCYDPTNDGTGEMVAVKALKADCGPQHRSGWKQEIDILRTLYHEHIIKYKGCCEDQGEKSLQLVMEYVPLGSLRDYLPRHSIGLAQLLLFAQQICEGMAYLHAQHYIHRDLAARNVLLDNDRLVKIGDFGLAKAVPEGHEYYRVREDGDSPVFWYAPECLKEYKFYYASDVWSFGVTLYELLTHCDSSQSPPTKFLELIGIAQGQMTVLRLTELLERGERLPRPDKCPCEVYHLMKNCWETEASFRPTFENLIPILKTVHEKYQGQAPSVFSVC
Source text: as §1, §2, §3, §4, §5
Compounds of Formula I were screened for their ability to inhibit Tyk2 using the general enzyme inhibition assay method, in which the assay mixture contained 10 μM (Km app) or 1 mM ATP, 8 μM Omnia® Y12 peptide (Catalog #IVGN KPZ3121C; Invitrogen Corporation, Carlsbad, Calif.) and 2 nM Tyk2 in a total volume of 20 μL. Human Tyk2 kinase domain, comprising amino acids 886 to 1187 with 10 additional histidine residues (histidine tag) on the carboxy terminus, was expressed and purified from bacculovirus in-house at Array BioPharma Inc. (Boulder, Colo.). The histidine tag was cleaved after purification using standard conditions.

T3 sequence (O60674 whole entry): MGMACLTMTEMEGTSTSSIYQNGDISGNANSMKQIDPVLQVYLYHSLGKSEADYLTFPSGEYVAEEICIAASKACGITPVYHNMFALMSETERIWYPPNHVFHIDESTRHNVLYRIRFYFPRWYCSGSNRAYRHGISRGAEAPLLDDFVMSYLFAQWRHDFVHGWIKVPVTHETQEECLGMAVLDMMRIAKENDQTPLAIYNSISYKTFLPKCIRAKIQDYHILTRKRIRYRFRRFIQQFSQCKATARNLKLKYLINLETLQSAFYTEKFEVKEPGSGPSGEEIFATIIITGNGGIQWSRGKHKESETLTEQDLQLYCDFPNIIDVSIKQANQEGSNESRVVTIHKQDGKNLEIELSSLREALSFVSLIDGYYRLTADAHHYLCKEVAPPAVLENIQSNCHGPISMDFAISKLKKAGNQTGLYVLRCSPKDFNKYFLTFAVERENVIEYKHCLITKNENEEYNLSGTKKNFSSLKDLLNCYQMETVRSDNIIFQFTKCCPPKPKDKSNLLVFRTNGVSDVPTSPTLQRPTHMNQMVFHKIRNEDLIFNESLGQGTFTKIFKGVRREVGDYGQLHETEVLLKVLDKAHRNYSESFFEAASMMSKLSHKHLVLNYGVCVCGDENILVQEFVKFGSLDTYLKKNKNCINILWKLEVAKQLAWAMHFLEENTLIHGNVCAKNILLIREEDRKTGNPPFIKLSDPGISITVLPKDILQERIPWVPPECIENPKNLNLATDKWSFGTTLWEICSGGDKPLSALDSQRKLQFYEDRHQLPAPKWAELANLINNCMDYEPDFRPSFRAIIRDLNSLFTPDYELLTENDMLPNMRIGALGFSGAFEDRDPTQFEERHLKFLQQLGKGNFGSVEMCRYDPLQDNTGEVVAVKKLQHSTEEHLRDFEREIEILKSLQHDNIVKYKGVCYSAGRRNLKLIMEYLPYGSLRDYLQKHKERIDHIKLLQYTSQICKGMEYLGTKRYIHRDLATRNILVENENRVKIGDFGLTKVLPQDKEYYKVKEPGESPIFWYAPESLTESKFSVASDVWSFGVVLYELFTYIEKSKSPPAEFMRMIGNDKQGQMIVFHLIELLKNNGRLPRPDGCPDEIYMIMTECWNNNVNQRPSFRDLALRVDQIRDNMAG
T1 sequence (P23458 whole entry): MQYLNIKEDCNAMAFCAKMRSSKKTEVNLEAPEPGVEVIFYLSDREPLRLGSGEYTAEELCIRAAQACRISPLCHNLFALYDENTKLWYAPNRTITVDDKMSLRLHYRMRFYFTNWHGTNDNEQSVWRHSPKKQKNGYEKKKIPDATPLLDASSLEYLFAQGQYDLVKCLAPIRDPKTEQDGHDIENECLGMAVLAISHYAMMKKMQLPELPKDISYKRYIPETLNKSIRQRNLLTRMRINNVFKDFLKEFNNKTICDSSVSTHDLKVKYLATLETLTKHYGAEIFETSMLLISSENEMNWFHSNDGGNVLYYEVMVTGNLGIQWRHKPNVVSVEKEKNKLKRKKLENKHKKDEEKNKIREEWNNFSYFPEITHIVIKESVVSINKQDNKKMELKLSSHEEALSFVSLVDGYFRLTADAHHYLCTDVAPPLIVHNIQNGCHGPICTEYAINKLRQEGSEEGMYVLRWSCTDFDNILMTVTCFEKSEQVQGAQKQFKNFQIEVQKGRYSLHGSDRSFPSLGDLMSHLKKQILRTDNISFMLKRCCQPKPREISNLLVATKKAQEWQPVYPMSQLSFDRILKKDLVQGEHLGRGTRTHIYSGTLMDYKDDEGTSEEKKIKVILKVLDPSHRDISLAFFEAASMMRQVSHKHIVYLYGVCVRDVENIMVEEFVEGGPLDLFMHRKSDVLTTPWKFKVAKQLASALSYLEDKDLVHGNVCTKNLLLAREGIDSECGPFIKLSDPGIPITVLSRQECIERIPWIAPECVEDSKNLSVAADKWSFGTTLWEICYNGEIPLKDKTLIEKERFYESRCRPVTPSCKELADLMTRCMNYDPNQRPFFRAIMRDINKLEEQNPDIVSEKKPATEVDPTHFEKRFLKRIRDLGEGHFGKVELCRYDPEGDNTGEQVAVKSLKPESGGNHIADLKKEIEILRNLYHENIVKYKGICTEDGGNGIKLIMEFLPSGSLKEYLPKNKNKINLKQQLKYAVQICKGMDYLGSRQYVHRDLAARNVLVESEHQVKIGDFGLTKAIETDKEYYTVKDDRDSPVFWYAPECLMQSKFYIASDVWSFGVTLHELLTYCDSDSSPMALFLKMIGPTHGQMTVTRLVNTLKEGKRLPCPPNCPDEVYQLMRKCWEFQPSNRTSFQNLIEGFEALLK

SMILES	IC50 [1]	IC50 [2]	IC50 [3]	IC50 [4]
CCOC(=O)CC1(n2cc(-c3nc(-c4cnn(C)c4)cc4nccn34)cn2)CN(S(=O)(=O)C(F)(F)F)C1 [Example 1, ethyl 2-(3-(4-(7-(1-methyl-1H-pyrazol-4-yl)imidazo[1,2-c]pyrimidin-5-yl)-1H-pyrazol-1-yl)-1-(trifluoromethylsulfonyl)azetidin-3-yl)acetate]	> 1000 nM	> 1000 nM	> 1000 nM	100 to 1000 nM
Cn1cc(-c2cc3nccn3c(-c3cnn(C4(CC(=O)O)CN(S(=O)(=O)C(F)(F)F)C4)c3)n2)cn1 [Example 2, 2-(3-(4-(7-(1-methyl-1H-pyrazol-4-yl)imidazo[1,2-c]pyrimidin-5-yl)-1H-pyrazol-1-yl)-1-((trifluoromethyl)sulfonyl)azetidin-3-yl)acetic acid]	> 1000 nM	> 1000 nM	> 1000 nM	100 to 1000 nM
COCCC1(n2cc(-c3nc(-c4cnn(C)c4)cc4nccn34)cn2)CN(S(=O)(=O)C(F)(F)F)C1 [Example 4, 5-(1-(3-(2-methoxyethyl)-1-((trifluoromethyl)sulfonyl)azetidin-3-yl)-1H-pyrazol-4-yl)-7-(1-methyl-1H-pyrazol-4-yl)imidazo[1,2-c]pyrimidine]	> 1000 nM	> 1000 nM	> 1000 nM	100 to 1000 nM
Cn1cc(-c2cc3nccn3c(-c3cnn(C(CO)C4CC4)c3)n2)cn1 (centres unmarked) [Example 6, 2-cyclopropyl-2-(4-(7-(1-methyl-1H-pyrazol-4-yl)imidazo[1,2-c]pyrimidin-5-yl)-1H-pyrazol-1-yl)ethanol]	> 1000 nM	> 1000 nM	> 1000 nM	100 to 1000 nM
CC#CCCn1cc(-c2nc(-c3cnn(C)c3)cc3nccn23)cn1 [Example 7, 7-(1-Methyl-1H-pyrazol-4-yl)-5-(1-(pent-3-yn-1-yl)-1H-pyrazol-4-yl)imidazo[1,2-c]pyrimidine]	> 1000 nM	> 1000 nM	> 1000 nM	100 to 1000 nM
Cn1cc(-c2cc3nccn3c(-c3cnn(C(C4CC4)C4CC4)c3)n2)cn1 [Example 9, 5-(1-(Dicyclopropylmethyl)-1H-pyrazol-4-yl)-7-(1-methyl-1H-pyrazol-4-yl)imidazo[1,2-c]pyrimidine]	> 1000 nM	100 to 1000 nM	100 to 1000 nM	10 to 100 nM
CCOC(=O)CC(C1CC1)n1cc(-c2nc(-c3cnn(C)c3)cc3nccn23)cn1 (centres unmarked) [Example 12, Ethyl 3-cyclopropyl-3-(4-(7-(1-methyl-1H-pyrazol-4-yl)imidazo[1,2-c]pyrimidin-5-yl)-1H-pyrazol-1-yl)propanoate]	> 1000 nM	> 1000 nM	> 1000 nM	100 to 1000 nM

Continued, values first:

IC50 [1]	IC50 [2]	IC50 [3]	IC50 [4]	SMILES
100 to 1000 nM	100 to 1000 nM	100 to 1000 nM	10 to 100 nM	Cn1cc(-c2cc3nccn3c(-c3cnn(C4(CCO)CN(S(=O)(=O)C(F)(F)F)C4)c3)n2)cn1 [Example 3, 2-(3-(4-(7-(1-methyl-1H-pyrazol-4-yl)imidazo[1,2-c]pyrimidin-5-yl)-1H-pyrazol-1-yl)-1-((trifluoromethyl)sulfonyl)azetidin-3-yl)ethanol]
> 1000 nM	> 1000 nM	100 to 1000 nM	100 to 1000 nM	CCn1cc(-c2nc(-c3cnn(C)c3)cc3nccn23)cn1 [Example 5, 5-(1-ethyl-1H-pyrazol-4-yl)-7-(1-methyl-1H-pyrazol-4-yl)imidazo[1,2-c]pyrimidine]
100 to 1000 nM	100 to 1000 nM	10 to 100 nM	10 to 100 nM	C#CCCn1cc(-c2nc(-c3cnn(C)c3)cc3nccn23)cn1 [Example 8, 5-(1-(But-3-yn-1-yl)-1H-pyrazol-4-yl)-7-(1-methyl-1H-pyrazol-4-yl)imidazo[1,2-c]pyrimidine]
100 to 1000 nM	100 to 1000 nM	10 to 100 nM	< 10 nM	C=CCC(CC1CC1)n1cc(-c2nc(-c3cnn(C)c3)cc3nccn23)cn1 (centres unmarked) [Example 10, 5-(1-(1-Cyclopropylpent-4-en-2-yl)-1H-pyrazol-4-yl)-7-(1-methyl-1H-pyrazol-4-yl)imidazo[1,2-c]pyrimidine]
100 to 1000 nM	100 to 1000 nM	10 to 100 nM	10 to 100 nM	Cn1cc(-c2cc3nccn3c(-c3cnn(C(CC4CC4)CC4CC4)c3)n2)cn1 [Example 11, 5-(1-(1,3-Dicyclopropylpropan-2-yl)-1H-pyrazol-4-yl)-7-(1-methyl-1H-pyrazol-4-yl)imidazo[1,2-c]pyrimidine]
		10 to 100 nM	< 10 nM	Cn1cc(-c2cc3nccn3c(-c3ccn([C@H](CCF)[C@H]4CC4(F)F)c3)n2)cn1 [Example 29, 5-(1-((R)-1-((R)-2,2-difluorocyclopropyl)-3-fluoropropyl)-1H-pyrrol-3-yl)-7-(1-methyl-1H-pyrazol-4-yl)imidazo[1,2-c]pyrimidine]
